Tested on: human myeloma cell line MM.1S
Test: SILAC acetylated-lysine peptide profiling, HDAC inhibitor vs DMSO (light/heavy ratio)
Format: cell-based
Text: An embodiment of the invention comprises utilizing the SILAC method in order to quantitate changes in protein expression between two or more populations of cells. The SILAC method is a technique based on mass spectrometry that detects differences in protein abundance among samples using non-radioactive isotopic labeling. The SILAC method is known in the art, and described in detail in Ong et al., “Stable Isotope Labeling by Amino Acids in Cell Culture, SILAC, as a Simple and Accurate Approach to Expression Proteomics”, Molecular & Cellular Proteomics, vol. 1, pp. 376-386 (2002), which is incorporated herein by reference in its entirety.
Briefly, the SILAC method involves growing two populations of cells in cell culture. The first population of cells is grown in growth media containing normal amino acids (“normal media”). The second population of cells is grown in media lacking a standard essential amino acid (such as lysine), but is then supplemented with a non-radioactive, isotopically labeled form of that essential amino acid (such as lysine labeled with ^13C atoms, rather than normal ^12C atoms), which is called “heavy media”. When the two populations of cells are each growing in the medium, they incorporate the amino acids into all of their proteins. The growth of cells maintained in the heavy media is no different from that in normal media. All peptides containing the heavy amino acids are heavier than their normal counterparts. The cells from each of the two populations of cells are lysed. The lysates from each of the two cell populations are then combined. The combined cell lysates are then analyzed by mass spectrometry. Pairs of chemically identical peptides of different stable isotope composition can be differentiated in a mass spectrometer due to their difference in mass. The ratio of peak intensities in the mass spectrum for such peptide pairs reflects the abundance ratio for the two proteins.
This example describes SILAC studies that were performed to compare the effects of three different HDAC inhibitors (Compound A, Compound B, and tubastatin A) to a control on a human multiple myeloma cell line. The HDAC inhibitors were also compared amongst themselves to determine differences in their effects.
A human myeloma cell line MM.1S was grown using either ^12C (light) or ^13C (heavy) lysine containing culture medium. The “heavy” cells were treated with DMSO as the control, and the “light” cells were treated with a single HDAC inhibitor at 37° C. for 6 hours. The heavy and light cells were lysed, and the lysates were mixed in 1:1 ratio and digested with the protease trypsin. The acetylated lysine containing peptides (due to the action of the HDAC inhibitor) in the digested peptide pool were captured by a non-specific anti-acetylated lysine antibody cocktail (the antibodies identify both light and heavy acetylated peptides), and subjected to mass spectrometry analysis in order to identify thousands of individual peptides.
Thousands of peptides were identified in pairs (^12C and ^13C) due to their known mass differences. The amino acid sequence and quantitative ratio (Light/Heavy) of a given peptide in two differentially treated cell lysates were then determined and annotated with their possible protein (gene) sources.
As stated above, three HDAC inhibitors (Compound A, Compound B, and Tubastatin A) were used. Thus, the SILAC method was performed three times, with a different HDAC inhibitor compared to a control each time. Accordingly, there are three pairs of quantitative data in the table below, i.e., Compound A:DMSO, Compound B:DMSO, and Tubastatin A:DMSO. A cut-off of 1.30 fold of change (increase or decrease) was then used to determine “changed” or “+” in the table, and any peptides with a fold of change less than 1.3 fold were determined to be “unchanged” or “0” in the table. Those peptides that were not identified were marked as “NA” in the table. […]

`CN1CCc2c(c3ccccc3n2Cc2ccc(C(=O)NO)cc2)C1` [Tub A] was tested, and the “light to heavy ratio (L/H ratio) of acetylated peptide SNPSEVVEFTTCPDK(ac)PGIPVKPSVK (SEQ ID NO: 336)” value (Isoform 2 of Fibronectin type-III domain-containing protein 3A [507], FNDC3A, drug:DMSO) was 0.00 log 2, the “light to heavy ratio (L/H ratio) of acetylated peptide LIAGNK(ac)PVSFLTAQQLQQLQQQGQATQVR (SEQ ID NO: 512)” value (Isoform 2 of Nuclear factor related to kappa-B-binding protein [1262], gene NFRKB, inhibitor:DMSO) was 0.00 log 2 and the “light to heavy ratio (L/H ratio) of acetylated peptide YQQFK(ac)DFQR (SEQ ID NO: 258)” value (Isoform 2 of Spliceosome RNA helicase DDX39B [349], SNORD84, DDX39B, drug:DMSO) was −0.38 log 2. The “light to heavy ratio (L/H ratio), log 2 scale, acetylated peptide LEPLK(ac)PLK (SEQ ID NO: 772)” value (Isoform 3 of Proline-rich protein 12 [1223], gene PRR12, drug:DMSO) was 0.00, the “light to heavy ratio (L/H ratio), log 2 scale, acetylated peptide DQTK(ac)SIVEK (SEQ ID NO: 810)” value (Isoform 3 of Reticulon-3 [217], gene RTN3, drug:DMSO) was 0.00 and the “light to heavy ratio (L/H ratio) of acetylated peptide VQDGLSDIAEK(ac)FLK (SEQ ID NO: 326)” value (Isoform 5 of Transcriptional regulator ATRX [812], ATRX, drug:DMSO) was 0.00 log 2. For the same compound, the “light to heavy ratio (L/H ratio) of acetylated peptide K(ac)SSETLR (SEQ ID NO: 601)” value (Isoform CNPI of 23-cyclic-nucleotide 3-phosphodiesterase [177], gene CNP, inhibitor:DMSO) was 0.00 log 2, the “light to heavy ratio (L/H ratio) of acetylated peptide MVAAAK(ac)YAR (SEQ ID NO: 324)” value (Isoform Heart of ATP synthase subunit gamma mitochondrial [55], ATP5C1, drug:DMSO) was 0.00 log 2 and the “light to heavy ratio (L/H ratio) of acetylated peptide VPNDK(ac)YYGAQTVR (SEQ ID NO: 625)” value (Isoform Mitochondrial of Fumarate hydratase mitochondrial [66], gene FH, inhibitor:DMSO) was 0.00 log 2. The “light to heavy ratio (L/H ratio) of acetylated peptide APQCLGK(ac)FIEIAAR (SEQ ID NO: 338)” value (Isoform Short of Heterogeneous nuclear ribonucleoprotein U [546], HNRNPU, drug:DMSO) was 0.00 log 2, the “light to heavy ratio (L/H ratio) of acetylated peptide LLEQYK(ac)EESK (SEQ ID NO: 302)” value (Isoform Short of Heterogeneous nuclear ribonucleoprotein U [651], HNRNPU, drug:DMSO) was −0.57 log 2 and the “light to heavy ratio (L/H ratio) of acetylated peptide, log 2 scale” value (K(ac)HPDASVNFSEFSK (SEQ ID NO: 164), Similar to nonhistone chromosomal protein HMG-1 [30], HMGB1P4) was −0.39. The “light to heavy ratio (L/H ratio) of acetylated peptide, log 2 scale” value (K(ac)TFEINPR (SEQ ID NO: 171), Endoplasmin [683], HSP90B1) was −0.73, the “light to heavy ratio (L/H ratio) of acetylated peptide, log 2 scale” value (K(ac)YEDICPSTHNMDVPNIK (SEQ ID NO: 152), Eukaryotic translation initiation factor 5A-2 [68], EIF5A2) was −0.56 and the “light to heavy ratio (L/H ratio) of acetylated peptide, log 2 scale” value (KLPK(ac)NEPQNATGAPGR (SEQ ID NO: 198), Ras-related protein Rab-5C [184], RAB5C) was 0.38. For the same compound, the “light to heavy ratio (L/H ratio), log 2 scale, acetylated peptide (ac)ASPSLERPEK(ac)GAGK (SEQ ID NO: 801)” value (KRR1 small subunit processome component homolog [11], gene KRR1, drug:DMSO) was 0.00, the “light to heavy ratio (L/H ratio) of acetylated peptide IVADK(ac)DYSVTANSK (SEQ ID NO: 317)” value (L-lactate dehydrogenase B chain [82], LDHB, drug:DMSO) was 0.51 log 2 and the “L/H ratio of acetylated peptide” value (LAK(ac)LSDGVAVLK (SEQ ID NO: 484), 60 kDa heat shock protein mitochondrial [396], HSPD1) was 0.00 log 2. The “light to heavy ratio (L/H ratio) of acetylated peptide, log 2 scale” value (LENK(ac)MEGIGLK (SEQ ID NO: 131), PRA1 family protein 3 [151], ARL6IP5) was 0.67, the “light to heavy ratio (L/H ratio) of acetylated peptide, log 2 scale” value (LIK(ac)VHLDK (SEQ ID NO: 215), 40S ribosomal protein S7 [155], RPS7) was −0.50 and the “light to heavy ratio (L/H ratio) of acetylated peptide, log 2 scale” value (LIYDTK(ac)GR (SEQ ID NO: 213), 40S ribosomal protein S4 X isoform [106], RPS4X) was −0.40. The “L/H ratio of acetylated peptide IHLEIK(ac)QLNR (SEQ ID NO: 57)” value (LMAN1 [346], log 2 scale, drug vs DMSO) was −0.56, the “L/H ratio of acetylated peptide LYK(ac)EELEQTYHAK (SEQ ID NO: 4)” value (LMNB1 [261], log 2 scale, drug vs DMSO) was 0.46 and the “L/H ratio of acetylated peptide LYKEELEQTYHAK(ac)LENAR (SEQ ID NO: 58)” value (LMNB1 [271], log 2 scale, drug vs DMSO) was −0.73. The “light to heavy ratio (L/H ratio) of acetylated peptide, log 2 scale” value (LNEQK(ac)LAQLEEAK (SEQ ID NO: 133), ATP synthase subunit b mitochondrial [131], ATP5F1) was 0.72, the “L/H ratio of acetylated peptide GFGYK(ac)GSCFHR (SEQ ID NO: 59)” value (LOC390956 [71], log 2 scale, drug vs DMSO) was −0.45 and the “light to heavy ratio (L/H ratio) of acetylated peptide, log 2 scale” value (LSLDK(ac)VFR (SEQ ID NO: 226), Stomatin-like protein 2 [145], STOML2) was −0.41. For the same compound, the “light to heavy ratio (L/H ratio) of acetylated peptide, log 2 scale” value (LTALDYHNPAGFNCK(ac)DETEFR (SEQ ID NO: 137), UPF0568 protein C14orf166 [20], C14orf166) was 0.41, the “light to heavy ratio (L/H ratio) of acetylated peptide, log 2 scale” value (LTEAKPVDK(ac)VK (SEQ ID NO: 221), cDNA FLJ60124 highly similar to Mitochondrial dicarboxylate carrier [142], SLC25A10) was −0.50 and the “L/H ratio of acetylated peptide” value (LTLSALLDGK(ac)NVNAGGHK (SEQ ID NO: 466), Voltage-dependent anion-selective channel protein 1 [266], VDAC1) was 0.00 log 2. For the same compound, the “L/H ratio of acetylated peptide” value (LVSEK(ac)LASYQAAR (SEQ ID NO: 476), Isoform 2 of Myc proto-oncogene protein [163], MYC) was 0.00 log 2, the “light to heavy ratio (L/H ratio) of acetylated peptide AVLK(ac)FAAATGATPIAGR (SEQ ID NO: 262)” value (Laminin receptor-like protein LAMRL5 [89], SNORA6, RPSAP15, SNORA62, RPSA, drug:DMSO) was −0.53 log 2 and the “light to heavy ratio (L/H ratio) of acetylated peptide SYVSEK(ac)DVTSAK (SEQ ID NO: 628)” value (Leucine-rich PPR motif-containing protein mitochondrial [1332], gene LRPPRC, inhibitor:DMSO) was 0.00 log 2. The “L/H ratio of acetylated peptide ICCQFDFK(ac)R (SEQ ID NO: 60)” value (MAN2A1 [373], log 2 scale, drug vs DMSO) was −0.69, the “L/H ratio of acetylated peptide YLTNQK(ac)NSNSK(ac)NDR (SEQ ID NO: 17)” value (MEAF6 [69:74], log 2 scale, drug vs DMSO) was 0.58 and the “light to heavy ratio (L/H ratio) of acetylated peptide, log 2 scale” value (MKENQK(ac)HIYYITGETK (SEQ ID NO: 169), Isoform 2 of Heat shock protein HSP 90-alpha [611], HSP90AA1) was −0.46. The “L/H ratio of acetylated peptide TLVLSDK(ac)HSPQK(ac)K (SEQ ID NO: 5)” value (MLL3 [2809:2814], log 2 scale, drug vs DMSO) was 0.67, the “light to heavy ratio (L/H ratio) of acetylated peptide, log 2 scale” value (MPTPVIK(ac)AFGILK (SEQ ID NO: 154), Isoform Mitochondrial of Fumarate hydratase mitochondrial [94], FH) was −0.55 and the “L/H ratio of acetylated peptide LNK(ac)DQWEER (SEQ ID NO: 10)” value (MSN [165], log 2 scale, drug vs DMSO) was −0.38. The “light to heavy ratio (L/H ratio) of acetylated peptide LSLLSK(ac)FR (SEQ ID NO: 564)” value (Mitochondrial trifunctional protein beta subunit (Fragment) [100], gene HADHB, inhibitor:DMSO) was 0.00 log 2, the “light to heavy ratio (L/H ratio) of acetylated peptide EIFQNEK(ac)R (SEQ ID NO: 288)” value (NAD(P) transhydrogenase mitochondrial [70], NNT, drug:DMSO) was 0.55 log 2 and the “light to heavy ratio (L/H ratio) of acetylated peptide AISPDK(ac)DNFYFDVK (SEQ ID NO: 284)” value (NAD(P) transhydrogenase mitochondrial [403], NNT, drug:DMSO) was 0.40 log 2. For the same compound, the “light to heavy ratio (L/H ratio) of acetylated peptide, log 2 scale” value (NATVGQSVLNIK(ac)YK (SEQ ID NO: 194), Peroxisome biogenesis factor 2 [84], PEX2) was 0.51 and the “light to heavy ratio (L/H ratio) of acetylated peptide, log 2 scale” value (NCMTDLLAK(ac)LEAK (SEQ ID NO: 201), Receptor expression-enhancing protein 5 [25], REEP5) was 0.49.
